Measured values as given in patent publication US8815880B2, “Crystal of tricyclic pyrazolopyrimidine derivative” (Daiichi Sankyo Company, Limited, priority 2010, dated 2014).

Columns and labels:
[1] = Purity test and stability test (accelerated test, HPLC related substances); assay type: physicochemical; details: monohydrochloride
Procedure: Purity Test and Stability Test
• Condition 1: 40° C., humidity: 75% • Condition 2: 60° C. (without humidity control)
Samples under the aforementioned accelerated test conditions were measured by high performance liquid chromatography as described below.
An analyte for the accelerated test was dissolved in the sample-dissolved solution to prepare an approximately 0.5 g/L solution.
• Column: YMC-Pack Pro C18RS, 3.0 mm ID×150 mm, particle diameter: 3 μm • Column temperature: approximately 40° C. • Gradient conditions:
45 to 55 minutes, mobile phase A: 0/mobile phase B: 100 • Flow rate: 0.7 ml/min • Measurement range: 0 to 55 minutes • Detection wavelength: 240 nm • Amount of sample solution injected: 5 μl <Calculation> • 1) The sample solution was injected into the column, so as to obtain the peak area (A) of each related substance and the peak area (T) of compound (1). • 2) The sample-dissolved solution was injected into the column, so as to obtain the peak area (B) of each blank. • 3) The amount [%] of each related substance was calculated using the formula: The amount [%] of each related substance=100×(A−B)÷T <Measurement Results>

[2] = tested on: human breast cancer cell line SK-BR-3; assay: Cell growth inhibition assay (MTT), SK-BR-3; assay type: cell-based; details: SK-BR-3 cells, 72 hours, read-out: GI50 value (50% growth inhibitory concentration)
Procedure: (§1) A cell growth inhibition assay was performed using two types of cells (human breast cancer cell line SK-BR-3 and human lung cancer cell line NCI-H460).
(§2) Cells of each type were suspended in a medium and seeded into a 96-well multi-well plate at 2000 cells/150 μL/well in the case of SK-BR-3 and at 500 cells/150 μL/well in the case of NCI-H460. Compound (1) was dissolved in DMSO, and this was diluted with medium to prepare a sample solution (DMSO concentration: 0.5% or less). On the day following the seeding, 50 μL of DMSO-containing medium to which the test compound was not added (hereinafter called DMSO diluted solution; DMSO concentration: 0.5% or less) or 50 μL of the sample solution was further added to the cells. An MTT assay was performed immediately after and 72 hours after adding the sample solution or the DMSO diluted solution to the cells. The MTT assay was performed as follows.
(§3) 5 mg/mL of an MTT (3-(4,5-dimethylthiazol-2-yl)-2,5-diphenyltetrazolium bromide) solution was added at 20 μL per well. Thereafter, the plate was incubated at 37° C. in 5% CO2 for four hours. The plate was centrifuged at 1200 rpm for five minutes, and then the culture supernatant was removed by suction using a dispenser. DMSO was added at 150 μL per well, and the generated formazan was dissolved. […] The absorbance of each well was measured using a plate reader at an OD of 540 nm with a reference of 660 nm. […]

[3] = tested on: human lung cancer cell line NCI-H460; assay: Cell growth inhibition assay (MTT), NCI-H460; assay type: cell-based; details: NCI-H460 cells, 72 hours, read-out: GI50 value (50% growth inhibitory concentration)
Procedure: as §1, §2, §3

[4] = Accelerated condition 1: 40° C., humidity 75%, 2 weeks
[5] = Accelerated condition 1: 40° C., humidity 75%, 4 weeks
[6] = Accelerated condition 2: 60° C. (without humidity control), 2 weeks
[7] = Accelerated condition 2: 60° C. (without humidity control), 4 weeks
[8] = Purity test (Initial), before accelerated test

| SMILES | Impurity (rrt 0.43) amount [1, 4] [%] | Impurity: Total of unspecified [1, 4] [%] | Impurity (rrt 0.43) amount [1, 5] [%] | Impurity: Total of unspecified [1, 5] [%] | Impurity (rrt 0.43) amount [1, 6] [%] | Impurity: Total of unspecified [1, 6] [%] | Impurity (rrt 0.43) amount [1, 7] [%] | Impurity: Total of unspecified [1, 7] [%] | Impurity (rrt 0.43) amount [1, 8] [%] | Impurity: Total of unspecified [1, 8] [%] | GI50 [2] [nM] | GI50 [3] [nM] |
| --- | --- | --- | --- | --- | --- | --- | --- | --- | --- | --- | --- | --- |
| CNC(=O)CC1=Cc2nn(Cc3ncc(C)c(OC)c3Cl)c3nc(N)nc(c23)SC1.Cl [Example 28, 2-{4-Amino-2-[(3-chloro-4-methoxy-5-methylpyridin-2-yl)methyl]-2,7-dihydro-6-thia-1,2,3,5-tetraazabenzo[cd]azulen-8-yl}-N-methylacetamide monohydrochloride] | 0.41 | 1.14 | 0.44 | 1.12 | 0.44 | 1.25 | 0.45 | 1.18 | 0.37 | 1.07 | – | – |
| CNC(=O)CC1=Cc2nn(Cc3ncc(C)c(OC)c3Cl)c3nc(N)nc(c23)SC1.Cl [Example 12, 2-{4-Amino-2-[(3-chloro-4-methoxy-5-methylpyridin-2-yl)methyl]-2,7-dihydro-6-thia-1,2,3,5-tetraazabenzo[cd]azulen-8-yl}-N-methylacetamide monohydrochloride] | 0.30 | 1.08 | 0.33 | 1.09 | 0.32 | 1.20 | 0.33 | 1.20 | 0.27 | 1.00 | – | – |
| CNC(=O)CC1=Cc2nn(Cc3ncc(C)c(OC)c3Cl)c3nc(N)nc(c23)SC1 [Compound (1), 2-{4-amino-2-[(3-chloro-4-methoxy-5-methylpyridin-2-yl)methyl]-2,7-dihydro-6-thia-1,2,3,5-tetraazabenzo[cd]azulen-8-yl}-N-methylacetamide] | – | – | – | – | – | – | – | – | – | – | 13 | 26 |
| CNC(=O)CC1=Cc2nn(Cc3ncc(C)c(OC)c3Cl)c3nc(N)nc(c23)SC1.Cl [Example 4, 2-{4-Amino-2-[(3-chloro-4-methoxy-5-methylpyridin-2-yl)methyl]-2,7-dihydro-6-thia-1,2,3,5-tetraazabenzo[cd]azulen-8-yl}-N-methylacetamide monohydrochloride] | 0.94 | 1.83 | 1.04 | 2.08 | 1.09 | 2.31 | 1.21 | 2.42 | 0.75 | 1.64 | – | – |
